For one assay, the system named is MCF-7. As to the kind of experiment: MTT based cell survival assay, parental MCF-7. Conditions: Homo sapiens, MCF7, read-out: Mean IC50. How it is done: To study the mechanism of resistance towards DNA methylation inhibitor, 2′-deoxy-5-azacytidine, we used the human colorectal cancer cell line (HCT116), human promyelocytic leukemia cells (HL-60), and human breast adenocarcinoma cell line (MCF-7) obtained from American Type Culture Collection (Manassas, Va.). The cell lines were cultured in complete growth media (Sigma-Aldrich, St. Louis, Mo.), supplemented with fetal bovine serum (FBS, PAN-Biotech GmbH, Aidenbach, Germany), 100 U/mL penicillin (Biotika, Slovenská L'upča, Slovak Republic) and 50 μg/mL streptomycin (Sigma-Aldrich), and the cultures were maintained at 37° C. and 5% CO2, in a humidified incubator. […]
(§1) To determine the IC50 of the epigenetic drugs (Tocris Bioscience, Bristol, United Kingdom), four independent experiments were performed using triplicate wells of 96 well plates. […] The wells with medium alone were included alongside as blank for absorbance readings. […]
(§2) Cross resistance was determined as the fold increase, whereas, the sensitivity was determined as the fold decrease in the IC50 of the drugs for the resistant cell lines compared to their genetically identical drug sensitive counterpart.

For the next assay, the system named is HCT116 xenografts. The assay is described as follows: Anti-tumor activity in xenografted mouse model, parental HCT116. It counts as in vivo, SCID mice. The conditions noted are these: parental HCT116 xenograft, DAC 2.5 mg/kg i.p., 10 doses, day 0-21. An excerpt: (§3) For in vivo validation of HCT116 resistance towards DAC and sensitivity of DAC resistant tumors to (+)-JQ1 treatment, we studied the anti-tumor activity of DAC and (+)-JQ1 in HCT116 parental versus a resistant cell clone R1.4 (HCT116_RDAC). Xenografts were established in 11-12 weeks-old female SCID mice, inoculated with 5×10^6 cells, s.c. on both sides of the chest. After 2 weeks, tumors were palpable (average tumor volume 20 mm^3) and mice were assigned into four groups (8 mice/group). Group I: vehicle control for DAC (10:90, DMSO: PBS) and Group II: DAC, 2.5 mg/kg by i.p. injection once a day for 14 days (5 days on, 2 days off), total 10 doses. […] Body weights of the animals were measured daily and tumor volume data were collected twice a week. […]
(§4) For determining the anti-tumor activity of the drugs, DAC and (+)-JQ1, tumor volume data for each group were transformed into relative tumor volumes followed by calculation of treatment to control ratio (T/C ratio) for each time point. […] Statistical significance of the data was determined by calculating bootstrap p-value, n=10000, one-sided test of H0: T/C ratio=1, H1: T/C ratio <1 (Jianrong Wu., Journal of Biopharmaceutical Statistics 2010; 20, 954-64). After day 21, statistical significance cannot be measured accurately due to decreased survival of animals in control group. […]

For a further assay, the system named is HCT116-RDAC xenografts. The assay is described as follows: Anti-tumor activity in xenografted mouse model, HCT116-RDAC (clone R1.4). It counts as in vivo, SCID mice. Conditions: HCT116-RDAC xenograft, DAC 2.5 mg/kg i.p., 10 doses, day 0-21.
Excerpt: as §3, §4

A further assay relates to DAC resistant cell lines. As to the kind of experiment: MTT based cell survival assay, DAC resistant cell lines as a group. The conditions noted are these: Homo sapiens, all of the resistant cell lines, read-out: resistance to DAC (IC50). As to the method:
The DAC resistant HCT116 cell lines were developed using two methods. […] After long term exposure of the cells to cytotoxic dose of the drug, the bulk population was determined to be resistant.
For cross validation of data obtained from comparative studies of HCT116 parental and resistant cells, we further developed DAC resistant MCF-7 and HL-60 cell lines. […] However, DAC resistant HL-60 cells were obtained as a gift from the author (Qin T. et al., Blood 2009; 113, 659-67) and was further selected in our laboratory by treatment with 5 μM DAC.
Resistance to DAC was confirmed by the MTT-based cell survival assay and resistance index was calculated as the fold increase in the IC50 of the resistant cell lines compared with the untreated control. All of the resistant cell lines were >100 μM resistant to DAC. […]
as §1, §2

One compound from patent US20180251847A1, “METHOD OF PREDICTING THE TUMOR RESPONSE TO DNA METHYLATION INHIBITORS AND ALTERNATIVE THERAPEUTIC REGIMEN FOR OVERCOMING RESISTANCE” (PALACKY UNIVERSITY, OLOMOUC, priority 2014, published 2018) can be followed below.

Each structure is given as a SMILES string.

In general, IC50 refers to the concentration needed to halve the response being measured. With `Nc1ncn([C@H]2C[C@H](O)[C@@H](CO)O2)c(=O)n1` [DAC, 2′-deoxy-5-azacytidine], the results for the IC50 in the assay with MCF-7 and with DAC resistant cell lines were 238 nM and above 100000 nM, respectively. Besides, the “fold effect (anti-tumor activity, aAUC of T/C ratio)” value worked out at 2.9 in the assay with HCT116 xenografts and 1.3 in the assay on HCT116-RDAC xenografts.
